Blank lines part the entries; values can stand above or below the molecule they belong to.
What was measured:
[1] = Cyclic voltammetry of the compounds of Examples 3, 4a and 4b; type: physicochemical; conditions: for Redox potential E^0′ vs. Ag/AgCl: single redox process; for Decomposition during cyclic voltammetry: both acidic and neutral electrolytes; for Redox potential vs. Ag/AgCl, first redox process / Redox potential vs. Ag/AgCl, second redox process: neutral electrolyte
Procedure: All CV measurements were carried out in a custom built 10 ml three-electrode electrochemical cell. The lower part of the cell holds the electrolyte of interest. In the upper part are ports to hold the working electrode, reference electrode and auxiliary electrode as well as inlet and outlet for N2 gas. […] Cyclic voltammograms were recorded at scan rates of 10 mVs^−1, 20 mVs^−1, 50 mVs^−1, 100 mVs^−1 and 250 mVs^−1 at room temperature. Prior to measurements, the electrolyte was de-aerated by continuously purging with N2 gas for 10-15 minutes and maintaining a N2 flow-blanket throughout the experiment to minimize any environmental contamination. Also, 80% of the ohmic drop was compensated for during the experiment using a positive feedback-loop.

[2] = Solubility testing, saturated solutions in milli-Q water at ambient temperature; conditions: thermodynamic from solid
Procedure: The solutions were centrifuged at 12,500 rpm for 30 minutes. 100 μl of the supernatant were pipetted in triplicates from each of the solution into separate empty vials of known weights. The content of these vails were left to dry in a vacuum oven overnight. The final weights of the vials were determined and the amount of each of the compounds calculated from the weight difference. Solubility in mmol/L for each compound was finally determined.

[3] = Bulk electrolysis cycling of NDI; type: physicochemical; conditions: 25 mM in pH 6.4 phosphate buffer, twelve cycles at 15 mA, roughly a week
Procedure: A solution of 25 mM NDI in pH 6.4 sodium phosphate buffer was cycled in a bulk electrolysis cell, where all of the material is reduced, as opposed to CV and RDE, where only a small fraction of the material is probed. A galvanostatic BE setting was used, where a constant current of 40 mA was applied. The electrolysis was intermittently paused, allowing for CVs to be collected to be able to quantify the amount of NDI that has been reduced. The peak heights from the CVs were correlated to the passed current, and it was seen that the complete capacity of NDI could be accessed using bulk electrolysis. […] For NDI, the reduction of the molecule lowers the monomer concentration in the solution, and the dimerization equilibrium is shifted in the direction of dimer separation.
After the initial sweep, continuous cycling at a current of 15 mA was performed for twelve cycles. A CV was collected after the cycling had finished, roughly a week after starting. […] Apart from that, the NDI molecule is synthesized via a one-step reaction, at room temperature in water with an almost 100% yield. It is water soluble up to 0.7 M, and has a lower reduction potential than any of the other examined molecules, resulting in a high battery voltage in the application.

[4] = Titration of tertiary NDI in water with 1 M sodium hydroxide; type: physicochemical; conditions: 50 ml 15.6 mM tertiary NDI in water
Excerpt: The quaternization is only necessary if the molecule is to be examined at higher pH values, since the tertiary amine sidechains are protonated for pH values less than about 8 (pKa≈8.1) as shown by the titration curve in FIG. 1. In FIG. 1 it can be seen that the molecule deprotonates above pH 8 and precipitates out of solution. For actual flow battery applications, i.e. redox flow battery according to the present invention, the last reaction step is thus possible to omit.

Water solubility of NDI = type: physicochemical
Diffusion NMR of NDI = type: physicochemical
Excerpt: Addition of three protons to each NDI molecule at pH values as high as 3 is unlikely, since the third proton would be at a weakly basic carbonyl. This is further supported by the lack of buffering at lower pHs in the titration curve in FIG. 1.

[5] = Cyclic voltammetry of NDI at different pH values; type: physicochemical; conditions: pH below 3
Excerpt: The electrochemistry of NDI was examined by CV at a range of different pH values, to gain understanding of the electron transfer reaction mechanism. FIG. 2a and FIG. 2b show cyclic voltammograms (CVs) for NDI at pH 7 and 0, respectively. […] The broadness of the first reduction at pH 7, is assumed to be due to the possibility for the first electron to add at different positions of NDI.
A plot of the reduction potentials for NDI at different pHs is seen in FIG. 3. […] The second reduction, the triangles in the figure, has a slope of 91 mV/pH at pH below 3, indicating a one electron-1.5 proton relationship, according to the Nernst equation.

[6] = 0.5M sodium phosphate buffer of pH 7, scan rate 10 mVs^−1
[7] = 0.5M sodium phosphate buffer of pH 7, scan rate 20 mVs^−1
[8] = 0.5M sodium phosphate buffer of pH 7, scan rate 50 mVs^−1
[9] = 0.5M sodium phosphate buffer of pH 7, scan rate 100 mVs^−1
[10] = 0.5M sodium phosphate buffer of pH 7, scan rate 250 mVs^−1
[11] = 1M sulfuric acid, scan rate 10 mVs^−1
[12] = 1M sulfuric acid, scan rate 20 mVs^−1
[13] = 1M sulfuric acid, scan rate 50 mVs^−1
[14] = 1M sulfuric acid, scan rate 100 mVs^−1
[15] = 1M sulfuric acid, scan rate 250 mVs^−1
[16] = acidic electrolyte (1 M sulfuric acid)

E^0′ vs. Ag/AgCl [1, 6]: −0.43 V
peak current ratio ipa/ipc [1, 6]: 0.82 ± 0.04
ΔEp [1, 6]: 49.21 ± 8.49 mV
E^0′ vs. Ag/AgCl [1, 7]: −0.43 V
peak current ratio ipa/ipc [1, 7]: 0.80 ± 0.05
ΔEp [1, 7]: 51.87 ± 9.16 mV
E^0′ vs. Ag/AgCl [1, 8]: −0.43 V
peak current ratio ipa/ipc [1, 8]: 0.74 ± 0.06
ΔEp [1, 8]: 61.48 ±12.09 mV
E^0′ vs. Ag/AgCl [1, 9]: −0.43 V
peak current ratio ipa/ipc [1, 9]: 0.69 ± 0.07
ΔEp [1, 9]: 68.59 ± 14.05 mV
E^0′ vs. Ag/AgCl [1, 10]: −0.43 V
peak current ratio ipa/ipc [1, 10]: 0.63 ± 0.07
ΔEp [1, 10]: 86.49 ± 20.99 mV
E^0′ vs. Ag/AgCl [1, 11]: −0.13 V
peak current ratio ipa/ipc [1, 11]: 0.91 ± 0.05
ΔEp [1, 11]: 63.67 ± 10.03 mV
E^0′ vs. Ag/AgCl [1, 12]: −0.13 V
peak current ratio ipa/ipc [1, 12]: 0.92 ± 0.01
ΔEp [1, 12]: 63.31 ± 10.97 mV
E^0′ vs. Ag/AgCl [1, 13]: −0.13 V
peak current ratio ipa/ipc [1, 13]: 0.89 ± 0.02
ΔEp [1, 13]: 64.97 ± 10.46 mV
E^0′ vs. Ag/AgCl [1, 14]: −0.13 V
peak current ratio ipa/ipc [1, 14]: 0.87 ± 0.00
ΔEp [1, 14]: 66.31 ± 9.29 mV
E^0′ vs. Ag/AgCl [1, 15]: −0.13 V
peak current ratio ipa/ipc [1, 15]: 0.82 ± 0.01
ΔEp [1, 15]: 71.25 ± 11.85 mV
Redox potential E^0′ vs. Ag/AgCl [1, 16]: −0.13 V
Redox potential E^0′ vs. Ag/AgCl ([1]; neutral electrolyte (0.5 M sodium phosphate buffer pH 7)): −0.43 V
Molecule: 4,9-dibromo-2,7-bis(3-(dimethylamino)propyl)benzo[Imn][3,8]phenanthroline-1,3,6,8(2H,7H)-tetraone [Compound 1]

Redox potential E^0′ vs. Ag/AgCl [1, 16]: ~−0.32 V
Decomposition during cyclic voltammetry [1]: no evidence of decomposition
Redox potential vs. Ag/AgCl, first redox process ([1]; first redox process): ~−0.30 V
Redox potential vs. Ag/AgCl, second redox process ([1]; second redox process): ~−0.63 V
solubility ([2]; Average, average of tests 1-3): 678 mM
solubility ([2]; Test 1, milli-Q water): 653 mM
solubility ([2]; Test 2, milli-Q water): 689 mM
solubility ([2]; Test 3, milli-Q water): 691 mM
Molecule: C[N+](C)(C)CCCN1C(=O)c2ccc3c4c(ccc(c24)C1=O)C(=O)N(CCC[N+](C)(C)C)C3=O [Compound 2, Benzo[Imn][3,8]phenanthroline-2,7-dipropanaminium, 1,3,6,8-tetrahydro-N,N,N,N′,N′,N′-hexamethyl-1,3,6,8-tetraoxo-, dichloride]

Potential vs. Ag/AgCl, first pair of peaks ([1]; acidic electrolyte, first redox process): ~−0.13 V
Potential vs. Ag/AgCl, second pair of peaks ([1]; acidic electrolyte, second redox process): ~−0.38 V
Decomposition during cyclic voltammetry [1]: no evidence of decomposition
Redox potential vs. Ag/AgCl, first redox process ([1]; first redox process): −0.05 V
Redox potential vs. Ag/AgCl, second redox process ([1]; second redox process): −0.65 V
solubility ([2]; Average, average of tests 1-3): 149 mM
solubility ([2]; Test 1, milli-Q water): 142 mM
solubility ([2]; Test 2, milli-Q water): 151 mM
solubility ([2]; Test 3, milli-Q water): 154 mM
Molecule: C[N+](C)(C)CCCN1C(=O)c2cc(Br)c3c4c(cc(Br)c(c24)C1=O)C(=O)N(CCC[N+](C)(C)C)C3=O [Compound 3, 3,3′-(4,9-dibromo-1,3,6,8-tetraoxo-1,3,6,8-tetrahydrobenzo[Imn][3,8]phenanthroline-2,7-diyl)bis(N,N,N-trimethylpropan-1-aminium) chloride]

Material degradation after cycling (CV before vs after) [3]: no or little material degradation
pKa of tertiary amine sidechains [4]: ≈ 8.1
Water solubility (Water solubility of NDI): up to 0.7 M
Diffusion coefficient (Diffusion NMR of NDI; acid solution): 2.57 ×10^−6 cm^2 s^−1
Diffusion coefficient (Diffusion NMR of NDI; neutral solution): 2.34 ×10^−6 cm^2 s^−1
Slope of second reduction potential versus pH [5]: 91 mV/pH
Molecule: CN(C)CCCN1C(=O)c2ccc3c4c(ccc(c24)C1=O)C(=O)N(CCCN(C)C)C3=O [NDI, 2,7-bis(3-(dimethylamino)propyl)benzo[Imn][3,8]phenanthroline-1,3,6,8(2H,7H)-tetraone]

— patent publication US20230318003A1, “REDOX FLOW BATTERY AND AQUEOUS-BASED SOLUTION” (RIVUS AB, priority 2020, published 2023)
